Patent US20090178158A1, “RESISTANCE AGAINST PARASITIC WEEDS” (Plant Research International B.V., priority 2005, published 2009)
Where “and” joins values, the source holds several entries; their conditions need not be identical. Identical values can stand only once. Entries after “also recorded” stand apart in the source; their conditions may differ.

Legend:
[1] = test system: carotenoid composition of shoots and roots of maize seedlings; experiment: Carotenoid analysis (HPLC) of shoots and roots of treated maize seedlings; assay type: in vivo
Striga hermonthica seeds [2] = experiment: Germination bioassay: S. hermonthica seeds with root exudates of treated host seedlings (maize, cowpea, sorghum); assay type: in vivo; details: for maize root exudate-induced S. hermonthica germination: maize W22 grown 5 days with 100 μM fosmidomycin or 10 μM mevastatin, control 42±2%
maize seedlings = experiment: Phenotype of inhibitor-treated maize seedlings; details: 10 μM mevastatin, 100 μM fosmidomycin, 25 μM fluridone, 200 μM amitrole (21° C.), 0.1-1 mM naproxen, 1 mM sodium tungstate, 0.02-0.2 mM abscisic acid
Orobanche crenata seeds = assay type: in vivo; details: 10 μM fluridone, versus control, FIG. 3F
Striga hermonthica seeds [3] = assay type: in vivo
[4] = Roots of 10-day old maize seedlings, 10 μM fluridone, 1 mM naproxen, 0.1 mM sodium tungstate, 0.02 mM abscisic acid, n.d. = below detection limit
[5] = Shoots of 10-day old maize seedlings, 10 μM fluridone, 1 mM naproxen, 0.1 mM sodium tungstate, 0.02 mM abscisic acid, n.d. = below detection limit
[6] = maize shoots, versus control (Table 1)

Compound: CC1=CC(=O)CC(C)(C)C1(O)/C=C/C(C)=C\C(=O)O (racemic) [abscisic acid, (±)-abscisic acid]
- violaxanthin, carotenoid content [1, 4]: 0.07 μg · g^−1 fwt
- β-carotene, carotenoid content [1, 4]: 0.01 μg · g^−1 fwt
- lutein, carotenoid content [1, 5]: 73.01 μg · g^−1 fwt
- neoxanthin, carotenoid content [1, 5]: 115.29 μg · g^−1 fwt
- violaxanthin, carotenoid content [1, 5]: 50.84 μg · g^−1 fwt
- β-carotene, carotenoid content [1, 5]: 47.35 μg · g^−1 fwt
- β-carotene concentration lower than in control roots ([1]; abscisic acid treated maize roots (0.02 mM, Table 1)): 50% and ~65%
- carotenoid accumulation in shoots (β-carotene, violaxanthin, neoxanthin, lutein) [1, 6]: decreased accumulation
- germination of S. hermonthica induced by root exudates of treated maize (Striga hermonthica seeds [2]; 0.02 or 0.2 mM abscisic acid, without/with 10 μM fluridone, FIG. 3D): very low germination; also recorded: strongly reduced
- morphology / appearance of treated seedlings (maize seedlings): slightly thicker and more brittle

Compound: CC1=C[C@H](O/C=C2/C(=O)O[C@@H]3c4ccccc4C[C@H]23)OC1=O [GR24]
- germination of S. hermonthica induced by GR24 alone (Striga hermonthica seeds [2]; suboptimal concentration of GR24 (0.01 mg.L^−1, FIG. 3E)): 48±1%

Compound: Nc1nc[nH]n1 [amitrole, 3-amino-1,2,4-triazole]
- germination of S. hermonthica induced by root exudates of treated maize (Striga hermonthica seeds [2]; maize Dent, 200 μM amitrole, grown at 21° C., versus control, FIG. 3C): lower germination
- morphology / appearance of treated seedlings (maize seedlings): yellow-green phenotype

Compound: O=CN(O)CCCP(=O)(O)O [fosmidomycin]
- maize root exudate-induced S. hermonthica germination (Striga hermonthica seeds [2]; FIG. 3A): 37±2%
- morphology / appearance of treated seedlings (maize seedlings): slightly pale-yellow leaves

Compound: CC[C@H](C)C(=O)O[C@H]1CCC=C2C=C[C@H](C)[C@H](CC[C@@H]3C[C@@H](O)CC(=O)O3)[C@H]21 [mevastatin]
- maize root exudate-induced S. hermonthica germination (Striga hermonthica seeds [2]; FIG. 3A): 33±3%

Compound: COc1ccc2cc([C@H](C)C(=O)[O-])ccc2c1.[Na+] [naproxen, (S)-6-methoxy-α-methyl-2-naphthaleneacetic acid sodium salt]
- carotenoid accumulation in shoots (β-carotene, violaxanthin, neoxanthin, lutein) ([1]; in vivo): decreased accumulation
- concentration of violaxanthin higher than in control roots ([1]; in vivo): about 3 fold
- concentration of β-carotene higher than in control roots ([1]; in vivo): 2 fold
- lutein, carotenoid content ([1]; in vivo): 68.58 μg · g^−1 fwt
- neoxanthin, carotenoid content ([1]; in vivo): 111.81 μg · g^−1 fwt
- germination of S. hermonthica seeds (Striga hermonthica seeds [2]; in vivo, sodium salt): 20±1% and 15±2%

Compound: [Na+].[Na+].[O]=[W](=[O])([O-])[O-] [sodium tungstate]
- violaxanthin, carotenoid content [1, 4]: 0.22 μg · g^−1 fwt
- β-carotene, carotenoid content [1, 4]: 0.03 μg · g^−1 fwt
- lutein, carotenoid content [1, 5]: 83.94 μg · g^−1 fwt
- neoxanthin, carotenoid content [1, 5]: 147.58 μg · g^−1 fwt
- violaxanthin, carotenoid content [1, 5]: 72.19 μg · g^−1 fwt
- β-carotene, carotenoid content [1, 5]: 64.29 μg · g^−1 fwt
- concentration of violaxanthin higher than in control roots ([1]; maize roots, 1 mM naproxen, 0.1 mM sodium tungstate (Table 1)): 2 fold
- carotenoid accumulation in shoots (β-carotene, violaxanthin, neoxanthin, lutein) [1, 6]: did not affect carotenoid accumulation
- effect on root exudate induced S. hermonthica germination (Striga hermonthica seeds [2]; maize Dent, 0.1 mM and 1 mM sodium tungstate, FIG. 3D): did not affect germination; also recorded: did not have an effect

Compound: fluridone
- germination of O. crenata seeds with fluridone-treated cowpea root exudate (Orobanche crenata seeds): lower than that induced by the control; also recorded: decreased this germination by about the same percentage as for S. hermonthica
- phytoene in treated roots ([1]; fluridone treated maize roots): phytoene accumulated
- phytoene in treated shoots ([1]; shoot of fluridone treated maize plants): phytoene accumulated
- germination of S. hermonthica induced by root exudates of treated maize (Striga hermonthica seeds [2]; 10 μM fluridone, dim light, FIG. 3B): negligible
- germination of S. hermonthica induced by root exudates of treated maize (Striga hermonthica seeds [2]; 10 μM fluridone, normal light, control 13±1%, FIG. 3B): virtually no germination
- germination of S. hermonthica induced by fluridone-treated cowpea root exudates with GR24 (Striga hermonthica seeds [2]; 10 μM fluridone-treated cowpea exudate plus 0.01 mg.L^−1 GR24, FIG. 3E): 53±3%
- germination of S. hermonthica seeds induced by cowpea root exudates (Striga hermonthica seeds [2]; cowpea watered with 10 μM fluridone for 5 days, non-treated 49±2%, FIG. 3E): 11±3%
- germination induced by root exudates lower than for control maize (Striga hermonthica seeds [2]; maize W22, 25 μM fluridone, 5 days, FIG. 3A): about 80%
- sorghum root exudate induced S. hermonthica germination (Striga hermonthica seeds [2]; sorghum, 4 μM fluridone, FIG. 3G): completely blocked
- effect on the attachment phase of Striga (Striga hermonthica seeds [3]; control experiments with GR24 inducing full germination (data not shown)): not affecting the attachment phase
- number of germinated/attached seeds/tubercles of Striga (Striga hermonthica seeds [3]; rice, fluridone sprayed to the leaves on 3 consecutive days, even at 0.001 and 0.01 μM, FIG. 7B): strong, significant reduction
- number of germinated/attached Striga seeds (Striga hermonthica seeds [3]; rice, irrigation once with 100 mL of 0.1 μM fluridone, scored after 6 weeks, FIG. 7A): significantly reduced
